Source: patent US12448389B2, “BRM targeting compounds and associated methods of use” (Prelude Therapeutics Incorporated, priority 2020, dated 2025)

Columns and labels:
SMARCA4-HiBiT = biological target: T1, SMARCA4-HiBiT (Homo sapiens, UniProt P51532); assay: SMARCA4 HiBiT degradation assay in HeLa cells; type: cell-based; settings: 18 hours incubation; for DC50: read-out: HeLa-HiBit-SM4 DC50; for Dmax: HeLa, read-out: HeLa-HiBit-SM4 Dmax (%)
T1 construct: SMARCA4-HiBiT knock-in Hela monoclonal cell (CS3023226); host or cells: HeLa monoclonal knock-in line (CRISPR HiBiT knock-in at the endogenous locus, heterozygous)
How it was run: (§1)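 HeLa monoclonal lines with heterozygous HiBiT knock-in were seeded at 2500 cells/well in EMEM with 10% FBS and treated with compound for 18 h at 37 °C. Remaining tagged protein was measured by Nano-Glo HiBiT lytic luminescence after 30–60 min at RT, and values came from curve fitting.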

SMARCA2-HiBiT = biological target: T2, SMARCA2-HiBiT (Homo sapiens, UniProt P51531); assay: SMARCA2 HiBiT degradation assay in HeLa cells; type: cell-based; settings: 18 hours incubation; for DC50: read-out: HeLa_HiBit-SM2 DC50; for Dmax: HeLa, read-out: HeLa-HiBit-SM2 Dmax (%)
T2 construct: SMARCA2-HiBiT knock-in Hela monoclonal cell (CS302366); host or cells: HeLa monoclonal knock-in line (CRISPR HiBiT knock-in at the endogenous locus, heterozygous)
How it was run: as §1

T1 sequence (P51532 whole entry): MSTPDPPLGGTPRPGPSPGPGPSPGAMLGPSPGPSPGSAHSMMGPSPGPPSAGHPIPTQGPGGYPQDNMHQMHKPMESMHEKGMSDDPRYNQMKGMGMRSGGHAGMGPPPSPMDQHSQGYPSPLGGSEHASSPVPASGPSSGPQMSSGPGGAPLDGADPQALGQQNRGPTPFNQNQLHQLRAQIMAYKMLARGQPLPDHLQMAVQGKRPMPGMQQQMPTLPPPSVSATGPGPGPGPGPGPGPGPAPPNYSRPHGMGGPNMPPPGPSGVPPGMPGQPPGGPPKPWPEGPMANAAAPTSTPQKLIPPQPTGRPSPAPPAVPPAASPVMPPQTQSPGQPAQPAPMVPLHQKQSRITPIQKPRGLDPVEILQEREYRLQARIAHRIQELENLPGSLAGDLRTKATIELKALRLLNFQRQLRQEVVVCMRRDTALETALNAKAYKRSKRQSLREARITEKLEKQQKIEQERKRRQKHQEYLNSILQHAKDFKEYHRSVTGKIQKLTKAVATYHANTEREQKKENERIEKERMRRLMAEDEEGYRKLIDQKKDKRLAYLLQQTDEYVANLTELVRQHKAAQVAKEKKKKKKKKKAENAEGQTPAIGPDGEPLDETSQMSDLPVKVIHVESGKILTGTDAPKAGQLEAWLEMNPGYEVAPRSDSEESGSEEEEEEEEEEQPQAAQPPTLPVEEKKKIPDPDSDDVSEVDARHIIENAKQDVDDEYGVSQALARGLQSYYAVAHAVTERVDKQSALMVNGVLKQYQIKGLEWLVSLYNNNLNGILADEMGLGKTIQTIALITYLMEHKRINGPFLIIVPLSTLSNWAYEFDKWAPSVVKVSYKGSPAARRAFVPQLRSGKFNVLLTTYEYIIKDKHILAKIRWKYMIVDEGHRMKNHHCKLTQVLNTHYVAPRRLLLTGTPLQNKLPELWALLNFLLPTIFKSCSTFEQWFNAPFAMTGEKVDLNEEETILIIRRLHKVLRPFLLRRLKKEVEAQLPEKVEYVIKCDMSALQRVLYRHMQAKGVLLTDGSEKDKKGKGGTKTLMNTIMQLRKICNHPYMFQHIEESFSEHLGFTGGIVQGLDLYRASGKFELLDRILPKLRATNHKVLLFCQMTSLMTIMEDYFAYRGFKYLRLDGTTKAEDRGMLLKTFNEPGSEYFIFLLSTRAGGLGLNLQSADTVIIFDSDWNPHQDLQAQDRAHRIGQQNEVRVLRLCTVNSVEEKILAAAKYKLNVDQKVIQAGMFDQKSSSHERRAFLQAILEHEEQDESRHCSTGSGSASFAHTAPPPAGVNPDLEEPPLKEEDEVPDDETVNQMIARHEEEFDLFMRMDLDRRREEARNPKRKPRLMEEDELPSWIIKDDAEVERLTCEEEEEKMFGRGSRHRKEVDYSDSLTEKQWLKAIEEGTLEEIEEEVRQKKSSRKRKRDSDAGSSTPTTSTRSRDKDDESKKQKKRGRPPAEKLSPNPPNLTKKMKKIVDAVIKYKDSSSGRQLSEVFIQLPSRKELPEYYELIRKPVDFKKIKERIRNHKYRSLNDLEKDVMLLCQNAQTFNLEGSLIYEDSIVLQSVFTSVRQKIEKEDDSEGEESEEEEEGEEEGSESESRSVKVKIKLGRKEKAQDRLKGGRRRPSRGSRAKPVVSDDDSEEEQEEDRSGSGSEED
T2 sequence (P51531 whole entry): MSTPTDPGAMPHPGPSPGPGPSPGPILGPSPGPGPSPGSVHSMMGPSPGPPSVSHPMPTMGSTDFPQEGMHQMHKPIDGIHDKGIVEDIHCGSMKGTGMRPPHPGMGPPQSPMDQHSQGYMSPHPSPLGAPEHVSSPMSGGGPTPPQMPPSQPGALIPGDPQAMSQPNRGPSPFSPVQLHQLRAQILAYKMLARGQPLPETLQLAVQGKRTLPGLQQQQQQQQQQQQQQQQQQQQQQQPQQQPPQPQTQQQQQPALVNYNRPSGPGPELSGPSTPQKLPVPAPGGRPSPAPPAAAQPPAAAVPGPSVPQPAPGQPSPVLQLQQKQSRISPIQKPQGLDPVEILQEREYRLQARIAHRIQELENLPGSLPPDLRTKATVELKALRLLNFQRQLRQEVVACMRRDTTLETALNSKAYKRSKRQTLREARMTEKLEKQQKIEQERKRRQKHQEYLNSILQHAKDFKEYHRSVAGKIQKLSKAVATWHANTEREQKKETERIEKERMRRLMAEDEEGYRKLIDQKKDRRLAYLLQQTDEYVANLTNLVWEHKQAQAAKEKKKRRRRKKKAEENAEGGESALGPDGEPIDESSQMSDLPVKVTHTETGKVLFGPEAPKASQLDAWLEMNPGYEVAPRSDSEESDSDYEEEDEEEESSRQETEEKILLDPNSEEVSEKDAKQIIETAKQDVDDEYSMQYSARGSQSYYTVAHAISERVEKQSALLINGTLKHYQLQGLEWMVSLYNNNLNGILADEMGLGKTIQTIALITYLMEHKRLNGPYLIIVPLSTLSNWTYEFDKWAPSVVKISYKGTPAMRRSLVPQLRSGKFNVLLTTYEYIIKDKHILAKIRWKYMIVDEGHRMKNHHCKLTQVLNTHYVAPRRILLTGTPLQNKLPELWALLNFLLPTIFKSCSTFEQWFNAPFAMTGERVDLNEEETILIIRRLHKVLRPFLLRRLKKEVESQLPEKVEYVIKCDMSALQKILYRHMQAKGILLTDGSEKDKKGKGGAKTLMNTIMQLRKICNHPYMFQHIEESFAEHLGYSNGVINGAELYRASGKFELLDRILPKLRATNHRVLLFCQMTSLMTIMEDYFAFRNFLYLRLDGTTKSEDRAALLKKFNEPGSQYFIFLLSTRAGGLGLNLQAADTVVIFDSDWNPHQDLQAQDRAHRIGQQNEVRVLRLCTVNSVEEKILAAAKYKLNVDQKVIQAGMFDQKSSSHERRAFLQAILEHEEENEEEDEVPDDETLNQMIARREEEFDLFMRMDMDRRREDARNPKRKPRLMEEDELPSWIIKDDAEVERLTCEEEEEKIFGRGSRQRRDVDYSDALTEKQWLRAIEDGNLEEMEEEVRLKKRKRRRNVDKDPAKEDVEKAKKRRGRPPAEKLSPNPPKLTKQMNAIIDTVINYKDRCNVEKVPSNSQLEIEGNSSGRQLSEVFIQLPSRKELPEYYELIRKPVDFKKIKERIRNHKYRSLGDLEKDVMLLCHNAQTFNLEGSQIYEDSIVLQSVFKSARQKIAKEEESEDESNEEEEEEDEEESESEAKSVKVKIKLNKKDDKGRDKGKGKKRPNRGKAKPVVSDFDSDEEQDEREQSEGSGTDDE

Row | SMILES | DC50 (SMARCA4-HiBiT) [nM] | Dmax (SMARCA4-HiBiT) [%] | DC50 (SMARCA2-HiBiT) [nM] | Dmax (SMARCA2-HiBiT) [%]
1 | O=C1CCC(N2Cc3ccc(N4CC[C@H](CN5CCC(C(=O)N6CCN7c8cc(-c9ccccc9O)nnc8NC[C@H]7C6)CC5)[C@@H](F)C4)cc3C2=O)C(=O)N1 (stereo partly drawn) [Example 261, 3-(6-((3R,4R)-3-fluoro-4-((4-((S)-2-(2-hydroxyphenyl)-6,6a,7,8,9,10-hexahydro-5H-pyrazino[1′,2′:4,5]pyrazino[2,3-c]pyridazine-8-carbonyl)piperidin-1-yl)methyl)piperidin-1-yl)-1-oxoisoindolin-2-yl)piperidine-2,6-dione] | 10 to 100 | 75 to 85 | < 10 | > 85
2 | C[C@H]1CN2c3cc(-c4ccccc4O)nnc3NC[C@H]2CN1C[C@H]1[C@@H]2CN(C[C@H]3CCN(c4ccc5c(c4)C(=O)N(C4CCC(=O)NC4=O)C5)C[C@@H]3F)C[C@@H]21 (stereo partly drawn) [Example 204, 3-[5-[(3R,4R)-3-fluoro-4-[[(1S,5R)-6-[[(10S,13S)-4-(2-hydroxyphenyl)-13-methyl-1,5,6,8,12-pentazatricyclo[8.4.0.02,7]tetradeca-2,4,6-trien-12-yl]methyl]-3-azabicyclo[3.1.0]hexan-3-yl]methyl]piperidin-1-yl]-3-oxo-1H-isoindol-2-yl]piperidine-2,6-dione] | 10 to 100 | 75 to 85 | < 10 | 75 to 85
3 | CC1(CN2C[C@@H]3[C@@H](CN4CCN5c6cc(-c7ccccc7O)nnc6NC[C@H]5C4)[C@@H]3C2)CN(c2ccc3c(c2)C(=O)N(C2CCC(=O)NC2=O)C3=O)CCO1 (stereo partly drawn) [Example 59, 2-(2,6-dioxopiperidin-3-yl)-5-(2-(((1R,5S,6s)-6-(((S)-2-(2-hydroxyphenyl)-5,6,6a,7,9,10-hexahydro-8H-pyrazino[1′,2′:4,5]pyrazino[2,3-c]pyridazin-8-yl)methyl)-3-azabicyclo[3.1.0]hexan-3-yl)methyl)-2-methylmorpholino)isoindoline-1,3-dione] | 10 to 100 | 75 to 85 | < 10 | 75 to 85
4 | O=C1CCC(N2C(=O)c3ccc(N4CCC(N5C[C@@H]6[C@@H](CN7CCN8c9cc(-c%10ccccc%10O)nnc9NC[C@H]8C7)[C@@H]6C5)CC4)cc3C2=O)C(=O)N1 (stereo partly drawn) [Example 90, 2-(2,6-dioxopiperidin-3-yl)-5-(4-((1R,5S,6s)-6-(((S)-2-(2-hydroxyphenyl)-5,6,6a,7,9,10-hexahydro-8H-pyrazino[1′,2′:4,5]pyrazino[2,3-c]pyridazin-8-yl)methyl)-3-azabicyclo[3.1.0]hexan-3-yl)piperidin-1-yl)isoindoline-1,3-dione] | 10 to 100 | 50 to 75 | < 10 | 50 to 75
5 | O=C1CCC(N2C(=O)c3ccc(N4CCC(CN5C[C@H]6C[C@H](CN7CCN8c9cc(-c%10ccccc%10O)nnc9NC[C@H]8C7)C[C@H]6C5)CC4)cc3C2=O)C(=O)N1 (stereo partly drawn) [Example 45, 2-(2,6-dioxopiperidin-3-yl)-5-(4-(((3aR,5s,6aS)-5-(((S)-2-(2-hydroxyphenyl)-5,6,6a,7,9,10-hexahydro-8H-pyrazino [1′,2′:4,5]pyrazino[2,3-c]pyridazin-8-yl)methyl)hexahydrocyclopenta[c]pyrrol-2(1H)-yl)methyl)piperidin-1-yl)isoindoline-1,3-dione] | < 10 | > 85 | < 10 | > 85
6 | O=C1CCC(N2C(=O)c3ccc(N4CCC(CN5CCC(S(=O)(=O)N6CCN7c8cc(-c9ccccc9O)nnc8NC[C@H]7C6)CC5)CC4)cc3C2=O)C(=O)N1 (stereo partly drawn) [Example 137, 2-(2,6-dioxopiperidin-3-yl)-5-(4-((4-(((S)-2-(2-hydroxyphenyl)-5,6,6a,7,9,10-hexahydro-8H-pyrazino[1′,2′:4,5]pyrazino[2,3-c]pyridazin-8-yl)sulfonyl)piperidin-1-yl)methyl)piperidin-1-yl)isoindoline-1,3-dione] | 10 to 100 | 50 to 75 | < 10 | 50 to 75
7 | O=C1CCC(N2Cc3ccc(N4CCC(CN5CCN(C(=O)N6CCN7c8cc(-c9ccccc9O)nnc8NC[C@H]7C6)C(CO)C5)CC4)cc3C2=O)C(=O)N1 (stereo partly drawn) [Example 110, 3-(6-(4-((3-(hydroxymethyl)-4-((S)-2-(2-hydroxyphenyl)-6,6a,7,8,9,10-hexahydro-5H-pyrazino[1′,2′:4,5]pyrazino[2,3-c]pyridazine-8-carbonyl)piperazin-1-yl)methyl)piperidin-1-yl)-1-oxoisoindolin-2-yl)piperidine-2,6-dione] | 10 to 100 | 75 to 85 | < 10 | > 85

Further lines, results first:

Row | DC50 (SMARCA4-HiBiT) [nM] | Dmax (SMARCA4-HiBiT) [%] | DC50 (SMARCA2-HiBiT) [nM] | Dmax (SMARCA2-HiBiT) [%] | SMILES
8 | < 10 | 75 to 85 | < 10 | > 85 | O=C1CCC(N2Cc3cc(N4CCO[C@@H](CN5C[C@@H]6[C@H](C5)[C@H]6CN5CCN6c7cc(-c8ccccc8O)nnc7NC[C@H]6C5)C4)ccc3C2=O)C(=O)N1 (stereo partly drawn) [Example 267, 3-(5-((S)-2-(((1R,5S,6R)-6-(((S)-2-(2-hydroxyphenyl)-5,6,6a,7,9,10-hexahydro-8H-pyrazino[1′,2′:4,5]pyrazino[2,3-c]pyridazin-8-yl)methyl)-3-azabicyclo[3.1.0]hexan-3-yl)methyl)morpholino)-1-oxoisoindolin-2-yl)piperidine-2,6-dione]
9 | < 10 | 75 to 85 | < 10 | > 85 | O=C1CCC(N2Cc3cc(OCCN4CCC(N5CCN6c7cc(-c8ccccc8O)nnc7NC[C@H]6C5)CC4)ccc3C2=O)C(=O)N1 (stereo partly shown) [Example 238]
10 | < 10 | 50 to 75 | < 10 | > 85 | O=C1CCC(N2C(=O)c3ccc(OC4CCN(CC5CCN(CCN6CCN7c8cc(-c9ccccc9O)nnc8NC[C@H]7C6)CC5)CC4)cc3C2=O)C(=O)N1 (stereo partly drawn) [Example 216, 2-(2,6-dioxopiperidin-3-yl)-5-((1-((1-(2-((S)-2-(2-hydroxyphenyl)-5,6,6a,7,9,10-hexahydro-8H-pyrazino[1′,2′:4,5]pyrazino[2,3-c]pyridazin-8-yl)ethyl)piperidin-4-yl)methyl)piperidin-4-yl)oxy) isoindoline-N, 3-dione]
11 | < 10 | 75 to 85 | < 10 | > 85 | O=C1CCC(N2Cc3cc(OCCCN4CCC(N5CCN6c7cc(-c8ccccc8O)nnc7NC[C@H]6C5)CC4)ccc3C2=O)C(=O)N1 (stereo partly drawn) [Example 237, 3-(5-(3-(4-((S)-2-(2-hydroxyphenyl)-5,6,6a,7,9,10-hexahydro-8H-pyrazino[1′,2′:4,5]pyrazino[2,3-c]pyridazin-8-yl)piperidin-1-yl)propoxy)-1-oxoisoindolin-2-yl)piperidine-2,6-dione]
12 | < 10 | 75 to 85 | < 10 | > 85 | N#CC1(CN2CCN3c4cc(-c5ccccc5O)nnc4NC[C@H]3C2)CCN(CC2CCN(c3ccc4c(c3)C(=O)N(C3CCC(=O)NC3=O)C4=O)CC2)CC1 (stereo partly drawn) [Example 178, 1-[[1-[2-(2,6-dioxopiperidin-3-yl)-1,3-dioxoisoindol-5-yl]piperidin-4-yl]methyl]-4-[[(10S)-4-(2-hydroxyphenyl)-1,5,6,8,12-pentazatricyclo[8.4.0.02,7]tetradeca-2,4,6-trien-12-yl]methyl]piperidine-4-carbonitrile]
13 | < 10 | > 85 | < 10 | > 85 | COC1(CN2CCN3c4cc(-c5ccccc5O)nnc4NC[C@H]3C2)CCN(CC2CCN(c3ccc4c(c3)CN(C3CCC(=O)NC3=O)C4=O)CC2)CC1 (stereo partly drawn) [Example 251, 3-(5-(4-((4-(((S)-2-(2-hydroxyphenyl)-5,6,6a,7,9,10-hexahydro-8H-pyrazino[1′,2′:4,5]pyrazino[2,3-c]pyridazin-8-yl)methyl)-4-methoxypiperidin-1-yl)methyl)piperidin-1-yl)-1-oxoisoindolin-2-yl)piperidine-2,6-dione]
14 | < 10 | 75 to 85 | < 10 | > 85 | O=C1CCC(N2C(=O)c3ccc(N4CCC(CN5CC(CN6CCN7c8cc(-c9ccccc9O)nnc8NC[C@H]7C6)C5)CC4)cc3C2=O)C(=O)N1 (stereo partly drawn) [Example 36, 2-(2,6-dioxopiperidin-3-yl)-5-(4-((3-(((S)-2-(2-hydroxyphenyl)-5,6,6a,7,9,10-hexahydro-8H-pyrazino[1′,2′:4,5]pyrazino[2,3-c]pyridazin-8-yl)methyl)azetidin-1-yl)methyl)piperidin-1-yl)isoindoline-1,3-dione]
15 | < 10 | > 85 | < 10 | > 85 | O=C1CCC(N2C(=O)c3ccc(N4CCC(N[C@H]5C[C@H](CN6CCN7c8cc(-c9ccccc9O)nnc8NC[C@H]7C6)C5)CC4)cc3C2=O)C(=O)N1 (stereo partly drawn) [Example 77, 2-(2,6-dioxopiperidin-3-yl)-5-(4-(((1S,3r)-3-(((S)-2-(2-hydroxyphenyl)-5,6,6a,7,9,10-hexahydro-8H-pyrazino[1′,2′:4,5]pyrazino[2,3-c]pyridazin-8-yl)methyl)cyclobutyl)amino)piperidin-1-yl)isoindoline-1,3-dione]
16 | < 10 | > 85 | < 10 | > 85 | O=C1CCC(N2Cc3cc(C4CCN(CC5CCN(CCN6CCN7c8cc(-c9ccccc9O)nnc8NC[C@H]7C6)CC5)CC4)ccc3C2=O)C(=O)N1 (stereo partly drawn) [Example 213, 3-(5-(1-((1-(2-((S)-2-(2-hydroxyphenyl)-5,6,6a,7,9,10-hexahydro-8H-pyrazino[1′,2′:4,5]pyrazino[2,3-c]pyridazin-8-yl)ethyl)piperidin-4-yl)methyl)piperidin-4-yl)-1-oxoisoindolin-2-yl)piperidine-2,6-dione]
